This note sets out measurements from patent publication US9592223B2, “Small molecule inhibitors of MALT1” (Cornell University, priority 2012, dated 2017).

Experiment [1] has as its system MALT1 dependent ABC-DLBCL cells HBL-1, TMD8, OCI-Ly3 and OCI-Ly10. As to the kind of experiment: Growth inhibition, MALT1 dependent cell lines. Type of experiment: cell-based, human. The conditions noted are these: 50 μM, 48 hr. The protocol: (§1) Endogenous MALT1 activity was evaluated by Western blotting for A20, BCL10 and CYLD; and NF-κB activation, by phospho-IκB-α and total IκB-α. Dependence on MALT1 proteolytic activity for proliferation was tested by 50[…]μM Z-VRPR-FMK treatment for 48 hr. […] The U2932 and HLY1 ABC-DLBCL cell lines harbor mutations in TAK1 and A20, which activate NF-κB signaling downstream of MALT1.
(§2) Cell proliferation was determined by ATP quantification using a luminescent method (CellTiter-Glo, Promega, Madison, Wis.) and Trypan blue dye-exclusion (Sigma, St. Louis, Mo.). Cell viability in drug-treated cells was normalized to their respective controls (fractional viability) and results are given as 1-fractional viability. […]
(§3) DLBCL cell lines were grown in exponential growth conditions during the 48 hr of treatment. Cell proliferation was determined by ATP quantification using a luminescent method (CellTiter-Glo, Promega, Madison, Wis.) and Trypan blue dye-exclusion (Sigma, St. Louis, Mo.). Luminescence was measured using the Synergy4 microplate reader (BioTek Instruments, Winooski, Vt.). Standard curves for each cell line were calculated by plotting the cell number (determined by the Trypan blue method) against their luminescence values and number of cells was calculated accordingly. […]

Experiment [2] relates to ABC-DLBCL MALT1 independent cell lines U2932 and HLY-1. The experiment can be described thus: Growth inhibition, MALT1 independent ABC-DLBCL cell lines. Type of experiment: cell-based, human. The conditions noted are these: 50 μM, 48 hr. How it is done:
as §1, §2, §3

The subject of experiment [3] is GCB-DLBCL cell lines OCI-Ly7 and OCI-Ly1. As to the kind of experiment: Growth inhibition, GCB-DLBCL cell lines. Type of experiment: cell-based, human. The conditions noted are these: 50 μM, 48 hr. How it is done: as §1, §2, §3
In the next experiment the test system is c-REL. The experiment can be described thus: c-REL flow cytometry of whole cells or isolated nuclei, HBL-1 cells. Type of experiment: cell-based, human. Conditions: 200 nM MI-2 or 50 μM Z-VRPR-FMK, 24 hr. How it is done:
MALT1 mediates c-REL translocation to the nucleus following BCR stimulation (Ferch et al., 2007). […] This selectivity towards c-REL had also been previously shown in MALT1 knockout mice and after MALT1 cleavage inhibition by the MALT1 blocking peptide Z-VRPR-FMK (Ferch et al., 2009; Ferch et al., 2007; Hailfinger et al., 2011).
[…] was studied by flow cytometry. Cells were treated as indicated and total cells or isolated nuclei were prepared and stained for c-REL. Total cells were fixed and permeabilized using the Intrastain kit from Dako (Glostrup, Denmark). For nuclei extraction, cells were resuspended in cold nuclei extraction buffer (320 mM sucrose, 5 mM MgCl2, 10 mM HEPES, 1% Triton X-100 at pH 7.4), incubated for 10 min on ice and washed twice with nuclei wash buffer (320 mM sucrose, 5 mM MgCl2, 10 mM HEPES at pH 7.4, no Triton X-100). Nuclei yield and integrity were confirmed by microscopic examination with trypan blue staining. For labeling, nuclei wash buffer was supplemented with 1% BSA, 0.1% sodium azide and 1:100 c-REL antibody (Cell Signaling). Cells were washed then incubated with Alexa Fluor-488 conjugated secondary antibodies from Invitrogen. Cells were washed again and stained with DAPI followed by flow cytometry.

The test system of experiment [4] is MALT1^WT NF-κB activation. The experiment can be described thus: NF-κB reporter assay in 293T cells, PMA/ionomycin, BCL10 and MALT1 WT. Type of experiment: cell-based. Conditions: pre-treatment. From the text:
Antigen receptor-mediated NF-κB signaling partly depends on MALT1 activity (Ruefli-Brasse et al., 2003; Ruland et al., 2003). […] First, 293T cells were transfected with the NF-κB reporter vector (NF-κB)5-luc2CP-pGL4 (harboring 5 copies of the NF-κB consensus response element and a destabilized Firefly luciferase) and TK-pRL control together with plasmids expressing BCL10 and either MALT1^WT or MALT1^C464A. […] HBL-1 was transfected with the reporter construct (NF-κB)5-luc2CP-pGL4 and TK-pRL control.
Reporter assays were performed in 293T cells seeded at a density of 2×10^5 cells per well of a 12-well dish. 100 ng of (NF-κB)5-Luc2CP-pGL4 and 10 ng of TK-Renilla internal control plasmid were cotransfected along with 25 ng of the indicated plasmids (MIGR1-MALT1^WT or MIGR1-MALT1^C464A and pcDNA4-Flag-Bcl10) using Lipofectamine 2000 (Invitrogen). Lysates were submitted to dual luciferase assays following manufacturer's protocol (Promega). In HBL-1, 5 μg of (NF-κB)5-Luc2CP-pGL4 and 50 ng of TK-Renilla internal control plasmid per 5×10^6 cells were cotransfected using nucleofection (Amaxa, Lonza, Basel, Switzerland). Forty-eight hours after transfection, cells were plated at a density of 5×10^4 cells per well of a 24-well plate and treated as indicated. Lysates were submitted to dual luciferase assays following manufacturer's protocol (Promega).
(In general: A reporter such as luciferase makes a cellular process visible.)

In experiment [5] the target is T1, LZ-MALT1 (MALT1 (340-789) fused with a leucine zipper dimerization motif) (Homo sapiens, UniProt Q9UDY8).
T1 construct: His tag (N); made in house; host or cells: E. coli
As to the kind of experiment: LZ-MALT1 fluorescence assay (Ac-LRSR-AMC cleavage), screening and concentration response. Type of experiment: biochemical. From the text:
We reasoned that MALT1 small-molecule inhibitors might be useful chemical tools for studying MALT1 biology and treating MALT1 addicted tumors. However, full-length MALT1 and its paracaspase domain (amino acids 340-789) are naturally present in physiological solutions as a monomer, which has very low proteolytic activity. Caspases generally must homodimerize for maximal catalytic activity (Pop et al., 2006; Walker et al., 1994; Yin et al., 2006) and accordingly the recently reported structures of the paracaspase domain of MALT1 in complex with a peptide inhibitor are dimeric (Wiesmann et al., 2012; Yu et al., 2011). […]
Ac-LRSR-AMC was used as substrate and reactions were measured with excitation/emission wavelengths of 360/465 nm. […] The final percent inhibition was calculated with the formula: {[fluorescencetest compound(T2-T1)−fluorescenceneg ctrl(T2−T1)]/[fluorescencepos ctrl(T2−T1)−fluorescenceneg ctrl(T2−T1)]}×100. […]
The screening consisted of a 20 μl reaction in 384-well black plates (Greiner Bio One, Wemmel, Belgium, catalogue #784076) with 100 nM LZ-MALT1, 200 μM Ac-LRSR-AMC, and 12.5 μM test compound in buffer A (20 mM HEPES pH 7.5, 10 mM KCl, 1.5 mM MgCl2, 1 mM EDTA, 1 mM DTT, 0.01% Triton X-100). The reactions were measured with excitation/emission wavelengths of 360/465 nm using Envision Multilabel Reader (Perkin-Elmer, Waltham, Mass.). […]

The target of a further experiment is T2, LZ-MALT1 (Homo sapiens, UniProt Q9UDY8).
T2 construct: His tag (N); made in house; host or cells: E. coli
As to the kind of experiment: Dose-effect and time-course of MALT1 inhibition (pre-incubation, then Ac-LRSR-AMC). Conditions: pre-incubation 5 to 80 minutes. Type of experiment: biochemical. How it is done:
The reactions were monitored in a SpectraMax M5 plate reader (Molecular Devices, Sunnyvale, Calif. USA) with excitation/emission wavelength at 360/465 nm and 20 seconds intervals. Normalized percentage of inhibition was calculated with the following formula: (M(T2-T1)−N(T2-T1))/(P(T2-T1)−N(T2-T1))*100, where M(T2-T1) is the difference signal of compound at time point 200s and 0s, N(T2-T1) is the difference signal of negative control buffer only, P(T2-T1) is the difference signal of positive control Z-VRPR-FMK.

T2 sequence (Q9UDY8 with tags, fused parts or gaps limits assumed): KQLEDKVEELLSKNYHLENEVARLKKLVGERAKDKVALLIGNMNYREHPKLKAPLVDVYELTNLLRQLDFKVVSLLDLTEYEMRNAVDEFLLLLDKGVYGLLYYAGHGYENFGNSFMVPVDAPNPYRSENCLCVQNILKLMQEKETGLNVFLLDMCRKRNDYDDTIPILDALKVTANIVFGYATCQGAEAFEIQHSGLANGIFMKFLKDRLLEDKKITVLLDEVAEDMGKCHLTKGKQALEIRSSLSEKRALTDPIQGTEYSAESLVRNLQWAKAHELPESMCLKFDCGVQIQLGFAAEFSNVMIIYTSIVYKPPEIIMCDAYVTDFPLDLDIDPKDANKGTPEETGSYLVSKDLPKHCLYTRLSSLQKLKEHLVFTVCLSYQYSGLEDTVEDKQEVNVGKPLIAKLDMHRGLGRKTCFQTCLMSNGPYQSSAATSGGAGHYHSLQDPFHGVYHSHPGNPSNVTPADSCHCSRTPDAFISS
T1 sequence (Q9UDY8 with tags, fused parts or gaps limits assumed): as above

Consider Z-VRPR-FMK [reference compound], for which the response of proliferation result in experiment [1] is on record as “inhibition of proliferation”; in experiment [2], “relatively little response”; in experiment [3] it was “did not respond”. Also, in the experiment on c-REL (isolated nuclei), the “nuclear c-REL” value is “reduced nuclear c-REL”. In the experiment with c-REL (whole cells), the “whole cell c-REL” value is listed as “without affecting whole cell levels”. In addition, the “NF-κB induction by PMA/ionomycin stimulation” value in experiment [4] is reported as “significantly inhibited NF-κB induction”.
In the case of `COCCOc1nc(-c2cccc(OC)c2)n(-c2ccc(NC(=O)c3cccc([N+](=O)[O-])c3)cc2)n1` [MI-2A2], the “biochemical IC50 (in words)” value in experiment [5] is recorded as “lower IC50”. Besides, at LZ-MALT1, the “kind of inhibition (time dependence)” value is recorded as “reversible inhibition” and the “percent MALT1 inhibition reached” value is reported as about 50%.
